What was measured:
[1] = system: barnyard grass; test: Test Example 3: herbicidal effect by foliage application, Wagner pot (Table 18, symbol H); assay type: in vivo, barnyard grass (Echinochloa crus-galli); conditions: 320 g/ha
Procedure, shortened: (§1)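 Plants were sown in alluvial soil held under 0.1–0.5 cm standing water and grown 14 days in a greenhouse at 25–30 °C. An emulsifiable formulation, water-diluted to the set dose, was then sprayed onto the foliage, and effects were scored three weeks later using previously defined criteria.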

[2] = system: Chinese sprangletop; test: Test Example 3: herbicidal effect by foliage application, Wagner pot (Table 18, symbol D); assay type: in vivo, chinese sprangletop (Leptochloa chinensis); conditions: 320 g/ha
Procedure, shortened: as §1

[3] = system: rice flat sedge; test: Test Example 3: herbicidal effect by foliage application, Wagner pot (Table 18, symbol E); assay type: in vivo, rice flat sedge (Cyperus iria); conditions: 320 g/ha
Procedure, shortened: as §1

[4] = system: southern crabgrass; test: Test Example 4: herbicidal effect by soil treatment (Table 19, symbol F); assay type: in vivo, southern crabgrass (Digitaria ciliaris); conditions: amount of applied herbicide 320 g/ha
Procedure, shortened: (§2)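 In this soil treatment, the formulated compound reached the seeds only through the soil: seeds were buried about 1.5 cm deep in sterilized diluvial soil, then the diluted emulsion was sprayed over the surface. After three weeks at 25° C. to 30° C. in a greenhouse, effects were graded on criteria from an earlier test.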

[5] = system: green foxtail; test: Test Example 4: herbicidal effect by soil treatment (Table 19, symbol G); assay type: in vivo, green foxtail (Setaria viridis); conditions: amount of applied herbicide 320 g/ha
Procedure, shortened: as §2

[6] = system: barnyard grass; test: Test Example 4: herbicidal effect by soil treatment (Table 19, symbol H); assay type: in vivo, barnyard grass (Echinochloa crus-galli); conditions: amount of applied herbicide 320 g/ha
Procedure, shortened: as §2

[7] = system: wild oat; test: Test Example 4: herbicidal effect by soil treatment (Table 19, symbol I); assay type: in vivo, wild oat (Avena fatua); conditions: amount of applied herbicide 320 g/ha
Procedure, shortened: as §2

[8] = system: blackgrass; test: Test Example 4: herbicidal effect by soil treatment (Table 19, symbol J); assay type: in vivo, blackgrass (Alopecurus myosuroides); conditions: amount of applied herbicide 320 g/ha
Procedure, shortened: as §2

[9] = system: Italian ryegrass; test: Test Example 4: herbicidal effect by soil treatment (Table 19, symbol K); assay type: in vivo, Italian ryegrass (Lolium multiflorum); conditions: amount of applied herbicide 320 g/ha
Procedure, shortened: as §2

[10] = system: windgrass; test: Test Example 4: herbicidal effect by soil treatment (Table 19, symbol L); assay type: in vivo, windgrass (Apera spica-venti); conditions: amount of applied herbicide 320 g/ha
Procedure, shortened: as §2

[11] = system: velvetleaf; test: Test Example 4: herbicidal effect by soil treatment (Table 19, symbol M); assay type: in vivo, velvetleaf (Abutilon theophrasti); conditions: amount of applied herbicide 320 g/ha
Procedure, shortened: as §2

[12] = system: redroot pigweed; test: Test Example 4: herbicidal effect by soil treatment (Table 19, symbol N); assay type: in vivo, redroot pigweed (Amaranthus retroflexus); conditions: amount of applied herbicide 320 g/ha
Procedure, shortened: as §2

[13] = system: lambsquarters; test: Test Example 4: herbicidal effect by soil treatment (Table 19, symbol O); assay type: in vivo, lambsquarters (Chenopodium album); conditions: amount of applied herbicide 320 g/ha
Procedure, shortened: as §2

[14] = system: chickweed; test: Test Example 4: herbicidal effect by soil treatment (Table 19, symbol P); assay type: in vivo, common chickweed (Stellaria media); conditions: amount of applied herbicide 320 g/ha
Procedure, shortened: as §2

[15] = system: persian speedwell; test: Test Example 4: herbicidal effect by soil treatment (Table 19, symbol R); assay type: in vivo, Persian speedwell (Veronica persica); conditions: amount of applied herbicide 320 g/ha
Procedure, shortened: as §2

[16] = system: southern crabgrass; test: Test Example 5: herbicidal effect by foliage application, plastic box (Table 20, symbol F); assay type: in vivo, southern crabgrass (Digitaria ciliaris); conditions: foliage application, 320 g/ha, three weeks after application
Procedure, shortened: (§3)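 Plants were sown into sterilized diluvial soil under about 1.5 cm cover and kept in a greenhouse at 25° C. to 30° C. Fourteen days on, foliage received an even spray of the diluted emulsion. Herbicidal or crop effect was judged three weeks afterwards.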

[17] = system: green foxtail; test: Test Example 5: herbicidal effect by foliage application, plastic box (Table 20, symbol G); assay type: in vivo, green foxtail (Setaria viridis); conditions: foliage application, 320 g/ha, three weeks after application
Procedure, shortened: as §3

[18] = system: barnyard grass; test: Test Example 5: herbicidal effect by foliage application, plastic box (Table 20, symbol H); assay type: in vivo, barnyard grass (Echinochloa crus-galli); conditions: foliage application, 320 g/ha, three weeks after application
Procedure, shortened: as §3

[19] = system: wild oat; test: Test Example 5: herbicidal effect by foliage application, plastic box (Table 20, symbol I); assay type: in vivo, wild oat (Avena fatua); conditions: foliage application, 320 g/ha, three weeks after application
Procedure, shortened: as §3

[20] = system: blackgrass; test: Test Example 5: herbicidal effect by foliage application, plastic box (Table 20, symbol J); assay type: in vivo, blackgrass (Alopecurus myosuroides); conditions: foliage application, 320 g/ha, three weeks after application
Procedure, shortened: as §3

[21] = system: Italian ryegrass; test: Test Example 5: herbicidal effect by foliage application, plastic box (Table 20, symbol K); assay type: in vivo, Italian ryegrass (Lolium multiflorum); conditions: foliage application, 320 g/ha, three weeks after application
Procedure, shortened: as §3

[22] = system: windgrass; test: Test Example 5: herbicidal effect by foliage application, plastic box (Table 20, symbol L); assay type: in vivo, windgrass (Apera spica-venti); conditions: foliage application, 320 g/ha, three weeks after application
Procedure, shortened: as §3

[23] = system: velvetleaf; test: Test Example 5: herbicidal effect by foliage application, plastic box (Table 20, symbol M); assay type: in vivo, velvetleaf (Abutilon theophrasti); conditions: foliage application, 320 g/ha, three weeks after application
Procedure, shortened: as §3

[24] = system: redroot pigweed; test: Test Example 5: herbicidal effect by foliage application, plastic box (Table 20, symbol N); assay type: in vivo, redroot pigweed (Amaranthus retroflexus); conditions: foliage application, 320 g/ha, three weeks after application
Procedure, shortened: as §3

[25] = system: lambsquarters; test: Test Example 5: herbicidal effect by foliage application, plastic box (Table 20, symbol O); assay type: in vivo, lambsquarters (Chenopodium album); conditions: foliage application, 320 g/ha, three weeks after application
Procedure, shortened: as §3

[26] = system: chickweed; test: Test Example 5: herbicidal effect by foliage application, plastic box (Table 20, symbol P); assay type: in vivo, common chickweed (Stellaria media); conditions: foliage application, 320 g/ha, three weeks after application
Procedure, shortened: as §3

[27] = system: persian speedwell; test: Test Example 5: herbicidal effect by foliage application, plastic box (Table 20, symbol R); assay type: in vivo, Persian speedwell (Veronica persica); conditions: foliage application, 320 g/ha, three weeks after application
Procedure, shortened: as §3

## Cc1nn(C)c(=O)c(-c2c(-c3ccc(C(F)(F)F)cc3)sc3cc(F)ccc23)c1O [3-139]
[1]
  herbicidal effect on barnyard grass (H): 4 (Herbicidal rate of 70% or more and less than 90%)
[2]
  herbicidal effect on Chinese sprangletop (D): 4 (Herbicidal rate of 70% or more and less than 90%)
[3]
  herbicidal effect on rice flat sedge (E): 4 (Herbicidal rate of 70% or more and less than 90%)
[4]
  Herbicidal effect by soil treatment, F: southern crabgrass: 0 (Herbicidal rate of 5% or less (almost no effect))
[5]
  Herbicidal effect by soil treatment, G: green foxtail: 0 (Herbicidal rate of 5% or less (almost no effect))
[6]
  Herbicidal effect by soil treatment, H: barnyard grass: 0 (Herbicidal rate of 5% or less (almost no effect))
[7]
  Herbicidal effect by soil treatment, I: wild oat: 0 (Herbicidal rate of 5% or less (almost no effect))
[8]
  Herbicidal effect by soil treatment, J: blackgrass: 0 (Herbicidal rate of 5% or less (almost no effect))
[9]
  Herbicidal effect by soil treatment, K: Italian ryegrass: 0 (Herbicidal rate of 5% or less (almost no effect))
[10]
  Herbicidal effect by soil treatment, L: windgrass: 0 (Herbicidal rate of 5% or less (almost no effect))
[11]
  Herbicidal effect by soil treatment, M: velvetleaf: 2 (Herbicidal rate of 20% or more and less than 40%)
[12]
  Herbicidal effect by soil treatment, N: redroot pigweed: 4 (Herbicidal rate of 70% or more and less than 90%)
[13]
  Herbicidal effect by soil treatment, O: lambsquarters: 3 (Herbicidal rate of 40% or more and less than 70%)
[14]
  Herbicidal effect by soil treatment, P: chickweed: 0 (Herbicidal rate of 5% or less (almost no effect))
[15]
  Herbicidal effect by soil treatment, R: persian speedwell: 1 (Herbicidal rate of 5% or more and less than 20%)
[16]
  F: southern crabgrass, herbicidal effect grade: 2 (Herbicidal rate of 20% or more and less than 40%)
[17]
  G: green foxtail, herbicidal effect grade: 4 (Herbicidal rate of 70% or more and less than 90%)
[18]
  H: barnyard grass, herbicidal effect grade: 5 (Herbicidal rate of 90% or more (almost completely withered))
[19]
  I: wild oat, herbicidal effect grade: 3 (Herbicidal rate of 40% or more and less than 70%)
[20]
  J: blackgrass, herbicidal effect grade: 0 (Herbicidal rate of 5% or less (almost no effect))
[21]
  K: Italian ryegrass, herbicidal effect grade: 5 (Herbicidal rate of 90% or more (almost completely withered))
[22]
  L: windgrass, herbicidal effect grade: 5 (Herbicidal rate of 90% or more (almost completely withered))
[23]
  M: velvetleaf, herbicidal effect grade: 5 (Herbicidal rate of 90% or more (almost completely withered))
[24]
  N: redroot pigweed, herbicidal effect grade: 3 (Herbicidal rate of 40% or more and less than 70%)
[25]
  O: lambsquarters, herbicidal effect grade: 5 (Herbicidal rate of 90% or more (almost completely withered))
[26]
  P: chickweed, herbicidal effect grade: 5 (Herbicidal rate of 90% or more (almost completely withered))
[27]
  R: persian speedwell, herbicidal effect grade: 5 (Herbicidal rate of 90% or more (almost completely withered))

— US20230085307A1, “PYRIDAZINONE COMPOUND AND HERBICIDE” (NISSAN CHEMICAL CORPORATION, priority 2019, published 2023)
